Data taken from patent publication US12673028B2, “Therapeutic potential of cellulose-cyclodextrin-curcumin nanocrystals in the treatment of peripheral neuropathies” (UNIVERSITÉ DE LIMOGES, priority 2019, dated 2026).

Key:
wild type Schwann cells = experiment: In vitro H2O2-induced oxidative stress in Schwann cells; format: cell-based, rat; details: H2O2 0.1 mM
Method: Schwann cells (SCs) were isolated from sciatic nerves of wild type (WT) male rats as well as 8-week-old CMT1A rats. SCs were cultured in SC culture medium (described in Caillaud et al., 2018): DMEM D-valine+2 mM glutamine (Gibco)+10% fetal calf serum (Gibco)+1% N2 supplement (Gibco)+20 μg/mL bovine pituitary extract+5 μM forskolin (Gibco)+100 U/mL penicillin/streptomycin (Gibco)+250 μg/mL fungizone (Gibco). SCs were identified using immunofluorescent labeling for S-100 protein.
To induce oxidative stress, SCs were subjected to H2O2 (0.1 mM) treatment for 8 hours. Total ROS and mitochondrial superoxide ions were assessed using the CellROX-Green reagent (Life Technologies GmbH) and the mitochondrial superoxide indicator MitoSOX Red (Life Technologies GmbH), respectively, according to the manufacturer's recommendations.

[1] = rats; cited from earlier work
[2] = Bioavailability of curcumin in plasma; format: in vivo; details: rat, 50 mg/kg

COc1cc(/C=C/C(=O)CC(=O)/C=C/c2ccc(O)c(OC)c2)ccc1O [Curcumin, curcumin]
Mitochondrial membrane potential Δψm (Rho123) (wild type Schwann cells; 0.001 μM and 0.01 μM): did not reduce the H2O2-induced decrease in Δψm
H2O2-induced mitochondrial ROS (MitoSOX) (wild type Schwann cells; 1 μM, 8 h pretreatment): restored values close to those of the control group
H2O2-induced total ROS (CellROX) (wild type Schwann cells; 1 μM, 8 h pretreatment): reduced H2O2-induced total ROS
H2O2-induced total ROS (CellROX) (wild type Schwann cells; 0.001, 0.01 and 10 μM, 8 h pretreatment): had no antioxidant effect
Oral bioavailability [1]: approximately 1%
concentration at 0 h [2]: 0 ng/mL
concentration at 1 h [2]: 24.9 ng/mL
concentration at 2 h [2]: 4.3 ng/mL
concentration at 8 h [2]: 0 ng/mL
concentration at 12 h [2]: 0 ng/mL
